The source of these data is patent US20060079453A1, “Hla binding peptides and their uses” (priority 2002, published 2006).

Values joined by “and” are separate entries in the source; they are usually repeats but may differ in a detail not shown here. Equal entries are not always repeated. Where two headings read alike, the source gives them in different places. No end group written: not given here.

Common to all, as to test: biochemical
For one test, the target named is H-2 Db (Mus musculus, UniProt P01899). It is filed as binding, murine.
Sequence of H-2 Db (P61769 21-119): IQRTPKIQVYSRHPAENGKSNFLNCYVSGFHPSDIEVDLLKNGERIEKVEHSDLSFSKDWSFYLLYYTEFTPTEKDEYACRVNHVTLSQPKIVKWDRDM
Sequence of H-2 Db (P01899 25-362): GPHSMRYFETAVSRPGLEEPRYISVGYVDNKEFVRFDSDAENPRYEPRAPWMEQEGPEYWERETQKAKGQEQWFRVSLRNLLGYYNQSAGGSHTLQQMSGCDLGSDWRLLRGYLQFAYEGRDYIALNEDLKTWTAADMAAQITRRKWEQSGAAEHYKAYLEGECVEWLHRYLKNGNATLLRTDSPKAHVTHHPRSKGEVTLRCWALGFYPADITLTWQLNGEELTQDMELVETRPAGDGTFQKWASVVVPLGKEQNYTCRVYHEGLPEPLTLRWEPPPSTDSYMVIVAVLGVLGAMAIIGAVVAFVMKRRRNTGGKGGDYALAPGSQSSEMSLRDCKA
The target of test [1] is HLA-DQ DQA1*0301/B*0301 (DQ7) (Homo sapiens, UniProt P01909+P01920, A209T/C70Q/DUP78-78/E183D/F237L/G63E/I129T/K197E/L178F/L74F/L98V/Q57E/Q76R/S185I/S97I/T49S/V73L). It is filed as binding.
A further test addresses HLA-B*0702 (Homo sapiens, UniProt P01889). It is filed as binding.
The target of another test is HLA-DR DRB1*1101 (DR11) (Homo sapiens, UniProt P01903+P01911, A100R/A169T/A87E/I96F/K41T/L162R/M171V/P40S/Q125H/Q178H/Q39Y/Q99D/R42S/S66Y/T262R/V115G/W38E). It is filed as binding.
Sequence of HLA-DR DRB1*1101 (DR11) (P01903 26-254 limits assumed, other chains not shown): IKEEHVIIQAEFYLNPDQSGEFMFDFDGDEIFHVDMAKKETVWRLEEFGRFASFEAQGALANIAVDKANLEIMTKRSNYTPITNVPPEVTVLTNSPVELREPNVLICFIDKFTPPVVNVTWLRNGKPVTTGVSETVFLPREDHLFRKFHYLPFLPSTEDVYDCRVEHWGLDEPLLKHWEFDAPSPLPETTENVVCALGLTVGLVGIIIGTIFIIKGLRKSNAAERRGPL
Another test concerns the target HLA-DR DRB1*0701 (DR7) (Homo sapiens, UniProt P01903+P01911, A100R/A102G/A103Q/D57E/D86V/E43K/F76Y/K127E/L162R/M171V/P40G/Q125H/Q99D/R33Q/R42Y/R54Q/S133A/S66F/T210M/V115G/Y107V/Y59L/Y89S). It is filed as binding.
The target of another test is HLA-DR DRB1*1501 (DR15) (Homo sapiens, UniProt P01903+P01911). It is filed as binding. Conditions: read-out: DRBI *1501.
A further test addresses HLA-DR DRB5*0101 (DR51) (Homo sapiens, UniProt P01903+Q30154). It is filed as binding.
A further test has as its target HLA-DR DRB3*0101 (DR52) (Homo sapiens, UniProt P01903+P79483). It is filed as binding. Conditions: read-out: DRB3 *0101.
For another test, the target named is HLA-DR DRB4*0101 (DR53) (Homo sapiens, UniProt P01903+P13762, G164S). It is filed as binding. Conditions: read-out: DRB4 *0101.
The target in a further test is HLA-DR DRB1*0401 (DR4) (Homo sapiens, UniProt P01903+P01911, A100K/A169T/F76Y/I96L/K127E/L162R/M171V/N62H/P40V/Q125Y/R42H/S133A/S149N/S66Y/V115G/V209L/W38E). It is filed as binding. The following applies: DRB1 *0401.
The target of the next test is HLA-DR DRB1*1302 (DR13) (Homo sapiens, UniProt P01903+P01911, A100E/A169T/K41T/L162R/M171V/P40S/Q125H/Q178H/Q39Y/Q99D/R42S/S66N/T262R/V115G/W38E/Y61H). It is filed as binding. Conditions: read-out: DRBI *1302.
Sequence of HLA-DR DRB1*1302 (DR13) (P01903 26-254 limits assumed, other chains not shown): as above

As for SFYRNLLWL, the IC50 on H-2 Db (Db) was 46 nM and 304 nM.
Consider FAPGYNPAL [FAPGYNPAL], for which, at H-2 Db (Db), the IC50 came out at 2 nM.
On the same count and under the same terms, the value for SGVENPGGYCL was 60 nM; that for `CC(C)[C@H](NC(=O)[C@@H](NC(=O)[C@H](CC(=O)O)NC(=O)[C@H](CO)NC(=O)[C@H](CC(N)=O)NC(=O)[C@@H](NC(=O)CNC(=O)[C@H](CS)NC(=O)[C@@H](N)Cc1ccccc1)C(C)C)[C@@H](C)O)C(=O)O` was 206 nM and 166 nM.
The same measure, in the same setting: the value for SHYAFSPM was above 88000 nM; that for ASNENMDAM was 28 nM.
Take RMIQNSLTI: at H-2 Db (Db), the IC50 is 4.6 nM.
As for IDWDLGGLAENFLPY, the IC50 in test [1] (read-out: DQB1*0301) amounted to 218 nM.
As for FQPQNGQFI, at H-2 Db (Db), the IC50 is 6.9 nM and 4.9 nM and 17 nM.
Same read-out and setting: with `CC[C@H](C)[C@H](N)C(=O)N[C@H](C(=O)N[C@@H](Cc1ccc(O)cc1)C(=O)N[C@@H](CCCCN)C(=O)N[C@@H](CC(N)=O)C(=O)N[C@@H](CO)C(=O)N[C@H](C(=O)N[C@@H](Cc1c[nH]c2ccccc12)C(=O)N[C@H](C(=O)O)C(C)C)[C@@H](C)O)[C@@H](C)O` the figure was 409 nM and 276 nM.
As for RPRFRGPGPGF, on HLA-B*0702 (B*0702 binding affinity (IC50)), the IC50 came to 9.7 nM.
KVPRNQDWL came in with an IC50 against H-2 Db (Db) of 38 nM.
For TGIGNQNII, at H-2 Db (read-out: Db), the IC50 amounted to 13 nM.
For the molecule YMRVNGKWM, the IC50 against H-2 Db (Db) was found to be 50 nM.
On the same count and under the same terms, with `CSCC[C@H](NC(=O)[C@H](C)NC(=O)[C@H](C)NC(=O)[C@H](C)NC(=O)[C@H](CC(N)=O)NC(=O)[C@H](C)NC(=O)[C@H](C)NC(=O)[C@H](C)NC(=O)[C@H](C)NC(=O)[C@H](C)NC(=O)[C@H](C)N)C(=O)O` the figure was 257 nM.
Still for that read-out and setting: the value for `CSCC[C@H](NC(=O)[C@H](C)NC(=O)[C@H](C)NC(=O)[C@H](C)NC(=O)[C@H](C)NC(=O)[C@H](Cc1ccc(O)cc1)NC(=O)[C@H](C)NC(=O)[C@H](C)NC(=O)[C@H](C)NC(=O)[C@H](C)N)C(=O)O` was above 44000 nM.
APRGPGPGL came in with an IC50 on HLA-B*0702 (B*0702 binding affinity (IC50)) of 4.9 nM.
With DDVWLGGLAEKFLPY, in test [1] (read-out: DQB1*0301), the IC50 was found to be 241 nM.
The same measure, in the same setting: the value for QKEDAAVTIYIEMLQN was 515 nM.
As to TALANTIEV, the IC50 on H-2 Db (read-out: Db) stood at 16 nM.
In the case of TALANTIEY, the IC50 at H-2 Db (read-out: Db) amounted to 3.7 nM.
As to KEDSHCAWTWRVEI, in test [1] (read-out: DQB1*0301), the IC50 was 4100 nM.
Regarding YAAFAAAKTAAAFA, the IC50 was 2.6 nM at HLA-DR DRB1*1101 (DR11) (read-out: DRB1 *1101); 34 nM at HLA-DR DRB1*0701 (DR7) (read-out: DRB1 *0701); above 4350 nM at HLA-DR DRB1*1501 (DR15); 9.5 nM on HLA-DR DRB5*0101 (DR51) (read-out: DRB5 *0101); 33300 nM at HLA-DR DRB3*0101 (DR52); 36 nM and 39 nM in [1] (read-out: DQB1*0301). Further, on HLA-DR DRB4*0101 (DR53), the IC50 was determined as 30 nM.
CSANNSHHYM gave an IC50 on H-2 Db (Db) of 42 nM.
For the molecule CLKDRRNFDIIPEEIK, the IC50 in test [1] (read-out: DQB1*0301) is 19400 nM.
For the molecule APAAPGPGPGA, the IC50 at HLA-B*0702 (B*0702 binding affinity (IC50)) was determined as 811 nM.
On the same count and under the same terms, the value for APRGPGPGAL [APRGPGPGAL] was 11 nM.
On to (44)YAAAAAAKAAA, for which the IC50 in test [1] (read-out: DQB1*0301) was 26 nM.
In turn, APRTGPGPGL gave an IC50 on HLA-B*0702 (B*0702 binding affinity (IC50)) of 15 nM.
Molecule `CSCC[C@H](NC(=O)[C@H](C)NC(=O)[C@H](C)NC(=O)[C@H](Cc1ccc(O)cc1)NC(=O)[C@H](C)NC(=O)[C@H](C)NC(=O)[C@H](C)NC(=O)[C@H](C)N)C(=O)O` registered an IC50 at H-2 Db (Db) above 44000 nM.
For KAVYNFATCGI, the IC50 against H-2 Db (Db) stood at 29 nM.
In the case of RPRGPGPGV, the IC50 on HLA-B*0702 (B*0702 binding affinity (IC50)) was 11 nM.
IDVWLGDLAENFLPY displayed an IC50 in test [1] above 44600 nM.
On H-2 Db (Db), SQVMNLHNL yielded an IC50 of 2.3 nM.
As to RLIQNFLTI, the IC50 against H-2 Db (Db) came to 40 nM.
Still for that read-out and setting: with `CC[C@H](C)[C@H](NC(=O)[C@@H](NC(=O)[C@@H](NC(=O)[C@H](Cc1ccccc1)NC(=O)[C@H](C)NC(=O)[C@H](CCCNC(=N)N)NC(=O)CNC(=O)[C@@H]1CCCN1C(=O)CNC(=O)[C@@H](N)CCCNC(=N)N)C(C)C)[C@@H](C)O)C(=O)O` the figure was 22000 nM.
In the case of AHAAHAAHAAHAAHAA, the IC50 against HLA-DR DRB1*1101 (DR11) (DRB1 *1101) was at least 200000 nM; at HLA-DR DRB1*0701 (DR7) (DRB1 *0701) it was above 250000 nM; on HLA-DR DRB5*0101 (DR51) (DRB5 *0101), at least 200000 nM; in test [1], 58 nM; against HLA-DR DRB1*0401 (DR4) it was 80000 nM.
As for `CC[C@H](C)[C@H](NC(=O)[C@H](Cc1ccccc1)NC(=O)[C@H](CCC(N)=O)NC(=O)CNC(=O)[C@H](CC(N)=O)NC(=O)[C@H](CCC(N)=O)NC(=O)[C@@H]1CCCN1C(=O)[C@H](CCC(N)=O)NC(=O)[C@@H](N)Cc1ccccc1)C(=O)N[C@@H](Cc1c[nH]cn1)C(=O)N[C@@H](Cc1ccccc1)C(=O)N[C@@H](Cc1ccc(O)cc1)C(=O)O`, the IC50 on H-2 Db (Db) stood at 280 nM.
As for IDVWLGGLDENFLPY, the IC50 in test [1] was above 19200 nM.
Consider RPGPGPGAV, for which the IC50 on HLA-B*0702 (B*0702 binding affinity (IC50)) turned out to be 23 nM.
As to QLQQFQKEDAAVTIY, the IC50 at HLA-DR DRB1*1101 (DR11) (read-out: DRB1 *1101) was above 408000 nM; on HLA-DR DRB1*1302 (DR13) it was 68 nM; at HLA-DR DRB1*1501 (DR15), 1720 nM; at HLA-DR DRB5*0101 (DR51) (read-out: DRB5 *0101) it was 4270 nM; in test [1] (read-out: DQB1*0301), 26200 nM; at HLA-DR DRB4*0101 (DR53), 1340 nM.
In turn, APGPGPGLL gave an IC50 on HLA-B*0702 (B*0702 binding affinity (IC50)) of 299 nM.
In the case of GMRQNATEI, the IC50 on H-2 Db (Db) was 81 nM.
On the same count and under the same terms, with SGVENPGGYCM the figure was 128 nM.
APAGPGPGAPA came in with an IC50 at HLA-B*0702 (B*0702 binding affinity (IC50)) of 161 nM.
On the same count and under the same terms, the value for APGPGPGTAL [APGPGPGTAL] was 81 nM; that for VPGPGPGL was 1520 nM; that for RPRFGPGPGEF was 14 nM.
For CMANNSHHYI, the IC50 at H-2 Db (Db) was determined as 220 nM.
Regarding SDSNYYDLLKDLEEG, the IC50 in test [1] (read-out: DQB1*0301) was above 89300 nM.
STGWNRTIVENLLAN: in [1] (read-out: DQB1*0301), the IC50 was found to be 47100 nM.
Regarding GSDLVEALYLVCGER, the IC50 in [1] was above 89300 nM.
Molecule `CC[C@H](C)[C@H](NC(=O)[C@H](CCC(=O)O)NC(=O)[C@@H]1CCCN1C(=O)[C@@H]1CCCN1C(=O)[C@@H](NC(=O)[C@H](CC(N)=O)NC(=O)[C@H](CO)NC(=O)[C@@H]1CCCN1C(=O)CNC(=O)[C@@H](N)CO)[C@@H](C)O)C(=O)O` showed an IC50 on H-2 Db (Db) of 8.1 nM.
Same read-out and setting: the value for RNPRFYNL was above 44000 nM.
TGICNQNII: the IC50 at H-2 Db (read-out: Db) was found to be 21 nM.
On to APAAGPGPGPA, for which the IC50 at HLA-B*0702 (B*0702 binding affinity (IC50)) was found to be 173 nM.
Regarding SSMHNALHI, the IC50 on H-2 Db (Db) stood at 7.6 nM.
Consider XVXDNATEY, for which the IC50 on HLA-B*0702 (read-out: B*0702 binding affinity (IC50)) is above 55000 nM.
